# Measurements as given in patent US11878973B2, “Bicyclic compounds and their uses” (NOVARTIS AG, priority 2021, dated 2024).
# Columns and labels:
# DLD1-WRN-KO cells = experiment: Proliferation assay DLD1-WRN-KO (CellTiterGlo, 96 hours; off-target effects); conditions: Homo sapiens, read-out: Proliferation Assay DLD1-WRN-KO (GI50)
# WRN helicase = WRN helicase (Homo sapiens (Human), UniProt Q14191); experiment: In vitro enzymatic activity assay on WRN helicase (DNA dependent ATPase assay, ADP-Glo); format: biochemical; conditions: geometric means of at least 2 determinations; read-out: WRN ATPase Activity (IC50)
# Summary of the method: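 DNA-dependent ATPase activity was measured by ADP-Glo luminescent ADP detection after a 30-min room-temperature reaction. The reaction contained 10 nM WRN (residues N517-P1238), 0.2 nM FLAP26 and 300 µM ATP at pH 7.5 with 2 mM MgCl2. Compounds were tested as 10-point half-log series in duplicate; IC50 values are geometric means from at least two independent experiments.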
# SW48 cells = experiment: Proliferation assay SW48 (CellTiterGlo, 96 hours); conditions: Homo sapiens, SW48, read-out: Proliferation Assay SW48 (GI50)
# Chain of WRN helicase (Q14191 517-1238): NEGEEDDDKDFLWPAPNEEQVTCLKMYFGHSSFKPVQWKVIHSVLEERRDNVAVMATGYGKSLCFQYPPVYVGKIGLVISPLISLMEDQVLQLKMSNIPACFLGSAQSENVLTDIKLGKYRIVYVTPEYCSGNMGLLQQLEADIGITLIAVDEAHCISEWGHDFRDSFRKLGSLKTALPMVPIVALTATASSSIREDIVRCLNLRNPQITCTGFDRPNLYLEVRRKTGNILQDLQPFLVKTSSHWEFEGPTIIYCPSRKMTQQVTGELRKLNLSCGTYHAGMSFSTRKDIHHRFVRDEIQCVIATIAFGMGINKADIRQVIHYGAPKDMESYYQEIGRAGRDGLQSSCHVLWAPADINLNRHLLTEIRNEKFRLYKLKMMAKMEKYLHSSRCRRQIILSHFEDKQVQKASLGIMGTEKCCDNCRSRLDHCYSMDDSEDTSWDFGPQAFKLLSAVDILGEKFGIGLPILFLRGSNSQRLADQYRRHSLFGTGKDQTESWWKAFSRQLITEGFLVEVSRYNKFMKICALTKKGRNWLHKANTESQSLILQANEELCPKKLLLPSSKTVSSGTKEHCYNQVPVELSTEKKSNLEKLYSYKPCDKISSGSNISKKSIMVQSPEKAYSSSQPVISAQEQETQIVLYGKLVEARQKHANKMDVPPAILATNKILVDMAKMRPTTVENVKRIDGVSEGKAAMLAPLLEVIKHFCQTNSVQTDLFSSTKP
Compound,GI50 (DLD1-WRN-KO cells) [nM],IC50 (WRN helicase) [nM],GI50 (SW48 cells) [nM]
"Cc1ccnc(C(=O)N2CCN(c3c(C)n(CC(=O)Nc4ccc(C(F)(F)F)cc4)c4nc(C5=CCOCC5)nn4c3=O)CC2)c1O [Example 90, 2-(2-(3,6-dihydro-2H-pyran-4-yl)-6-(4-(3-hydroxy-4-methylpicolinoyl)piperazin-1-yl)-5-methyl-7-oxo-[1,2,4]triazolo[1,5-a]pyrimidin-4(7H)-yl)-N-(4-(trifluoromethyl)phenyl)acetamide]",> 10000,130,300
"CCc1c(N2CCN(C(=O)c3ncccc3O)CC2)c(=O)n2nc(C3=CCCCN3)nc2n1CC(=O)Nc1ccc(C(F)(F)F)cc1C [Example 110, 2-(5-ethyl-6-(4-(3-hydroxypicolinoyl)piperazin-1-yl)-7-oxo-2-(1,4,5,6-tetrahydropyridin-2-yl)-[1,2,4]triazolo[1,5-a]pyrimidin-4(7H)-yl)-N-(2-methyl-4-(trifluoromethyl)phenyl)acetamide]",> 10000,360,1210
"CCc1c(N2CCN(C(=O)c3ncccc3O)CC2)c(=O)n2nc(C3=CNCCC3)nc2n1CC(=O)Nc1ccc(C(F)(F)F)cc1C [Example 109, 2-(5-ethyl-6-(4-(3-hydroxypicolinoyl)piperazin-1-yl)-7-oxo-2-(1,4,5,6-tetrahydropyridin-3-yl)-[1,2,4]triazolo[1,5-a]pyrimidin-4(7H)-yl)-N-(2-methyl-4-(trifluoromethyl)phenyl)acetamide]",> 10000,1180,690
"CCc1c(N2CCN(C(=O)c3nccc(Cl)c3O)CC2)c(=O)n2nc(C3=CCOCC3)nc2n1CC(=O)Nc1ccc(C(F)(F)F)cc1Cl [Example 39, 2-(6-(4-(4-chloro-3-hydroxypicolinoyl)piperazin-1-yl)-2-(3,6-dihydro-2H-pyran-4-yl)-5-ethyl-7-oxo-[1,2,4]triazolo[1,5-a]pyrimidin-4(7H)-yl)-N-(2-chloro-4-(trifluoromethyl)phenyl)acetamide]",> 10000,40,50
"CCc1c(N2CCN(C(=O)c3ncccc3O)CC2)c(=O)n2nc(C3=CCOCC3)nc2n1CC(=O)Nc1cc(F)c(C(F)(F)F)nc1C [Example 70, 2-(2-(3,6-dihydro-2H-pyran-4-yl)-5-ethyl-6-(4-(3-hydroxypicolinoyl)piperazin-1-yl)-7-oxo-[1,2,4]triazolo[1,5-a]pyrimidin-4(7H)-yl)-N-(5-fluoro-2-methyl-6-(trifluoromethyl)pyridin-3-yl)acetamide]",> 10000,100,220
"Cc1c(N2CCN(C(=O)c3ncccc3O)CC2)c(=O)n2nc(C3=CCOCC3)nc2n1CC(=O)Nc1ccc(C(F)(F)F)cc1 [Example 117, 2-(2-(3,6-dihydro-2H-pyran-4-yl)-6-(4-(3-hydroxypicolinoyl)piperazin-1-yl)-5-methyl-7-oxo-[1,2,4]triazolo[1,5-a]pyrimidin-4(7H)-yl)-N-(4-(trifluoromethyl)phenyl)acetamide]",> 10000,40,260
"CCc1c(N2CCN(C(=O)c3nccc(Cl)c3O)CC2)c(=O)n2nc(C3=CCOCC3)nc2n1CC(=O)Nc1cc(F)c(C(F)(F)F)cc1C [Example 95, 2-(6-(4-(4-chloro-3-hydroxypicolinoyl)piperazin-1-yl)-2-(3,6-dihydro-2H-pyran-4-yl)-5-ethyl-7-oxo-[1,2,4]triazolo[1,5-a]pyrimidin-4(7H)-yl)-N-(5-fluoro-2-methyl-4-(trifluoromethyl)phenyl)acetamide]",> 10000,50,60
"CCc1c(N2CCN(C(=O)c3nc(C)cc(F)c3O)CC2)c(=O)n2nc(C3=CCOCC3)nc2n1CC(=O)Nc1ccc(C(F)(F)F)cc1Cl [Example 41, N-(2-chloro-4-(trifluoromethyl)phenyl)-2-(2-(3,6-dihydro-2H-pyran-4-yl)-5-ethyl-6-(4-(4-fluoro-3-hydroxy-6-methylpicolinoyl)piperazin-1-yl)-7-oxo-[1,2,4]triazolo[1,5-a]pyrimidin-4(7H)-yl)acetamide]",> 10000,40,40
"CCc1c(N2CCN(C(=O)c3nccc(Cl)c3O)CC2)c(=O)n2nc(C3=COCCO3)nc2n1CC(=O)Nc1ccc(C(F)(F)F)cc1C [Example 78, 2-(6-(4-(4-chloro-3-hydroxypicolinoyl)piperazin-1-yl)-2-(5,6-dihydro-1,4-dioxin-2-yl)-5-ethyl-7-oxo-[1,2,4]triazolo[1,5-a]pyrimidin-4(7H)-yl)-N-(2-methyl-4-(trifluoromethyl)phenyl)acetamide]",> 10000,80,300
"CCc1c(N2CCN(C(=O)c3ncnc(C)c3O)CC2)c(=O)n2nc(C3=CCOCC3)nc2n1CC(=O)Nc1ccc(C(F)(F)F)cc1Br [Example 108, N-(2-bromo-4-(trifluoromethyl)phenyl)-2-(2-(3,6-dihydro-2H-pyran-4-yl)-5-ethyl-6-(4-(5-hydroxy-6-methylpyrimidine-4-carbonyl)piperazin-1-yl)-7-oxo-[1,2,4]triazolo[1,5-a]pyrimidin-4(7H)-yl)acetamide]",> 10000,80,90
"CCc1c(N2CCN(C(=O)c3ncnc(C)c3O)CC2)c(=O)n2nc(C3=CCOCC3)nc2n1CC(=O)Nc1ccc(C(F)(F)F)cc1F [Example 107, 2-(2-(3,6-dihydro-2H-pyran-4-yl)-5-ethyl-6-(4-(5-hydroxy-6-methylpyrimidine-4-carbonyl)piperazin-1-yl)-7-oxo-[1,2,4]triazolo[1,5-a]pyrimidin-4(7H)-yl)-N-(2-fluoro-4-(trifluoromethyl)phenyl)acetamide]",> 10000,50,100
"CCc1c(N2CCN(C(=O)c3ncccc3O)CC2)c(=O)n2nc(C3=CCC(OC)CC3)nc2n1CC(=O)Nc1ccc(C(F)(F)F)nc1C (racemic) [Example 26, rac-2-(5-ethyl-6-(4-(3-hydroxypicolinoyl)piperazin-1-yl)-2-(4-methoxycyclohex-1-en-1-yl)-7-oxo-[1,2,4]triazolo[1,5-a]pyrimidin-4(7H)-yl)-N-(2-methyl-6-(trifluoromethyl)pyridin-3-yl)acetamide]",> 10000,250,80
"CCc1c(N2CCN(C(=O)c3ncccc3O)CC2)c(=O)n2nc(C3=COCCO3)nc2n1CC(=O)Nc1ccc(C(F)(F)F)cc1C [Example 113, 2-(2-(5,6-dihydro-1,4-dioxin-2-yl)-5-ethyl-6-(4-(3-hydroxypicolinoyl)piperazin-1-yl)-7-oxo-[1,2,4]triazolo[1,5-a]pyrimidin-4(7H)-yl)-N-(2-methyl-4-(trifluoromethyl)phenyl)acetamide]",> 10000,40,120
"CCc1c(N2CCN(C(=O)c3nccc(Cl)c3O)CC2)c(=O)n2nc(N3CCOCC3)nc2n1CC(=O)Nc1ccc(C(F)(F)F)cc1C [Example 9, 2-(6-(4-(4-chloro-3-hydroxypicolinoyl)piperazin-1-yl)-5-ethyl-2-morpholino-7-oxo-[1,2,4]triazolo[1,5-a]pyrimidin-4(7H)-yl)-N-(2-methyl-4-(trifluoromethyl)phenyl)acetamide]",> 10000,60,350
"CCc1c(N2CCN(C(=O)c3ncnc(C)c3O)CC2)c(=O)n2nc(C3=CCN(C(=O)OC(C)(C)C)CC3)nc2n1CC(=O)Nc1ccc(C(F)(F)F)cc1C [Example 130, tert-butyl 4-(5-ethyl-6-(4-(5-hydroxy-6-methylpyrimidine-4-carbonyl)piperazin-1-yl)-4-(2-((2-methyl-4-(trifluoromethyl)phenyl)amino)-2-oxoethyl)-7-oxo-4,7-dihydro-[1,2,4]triazolo[1,5-a]pyrimidin-2-yl)-3,6-dihydropyridine-1 (2H)-carboxylate]",> 10000,100,50
"CCc1c(N2CCN(C(=O)c3ncccc3O)CC2)c(=O)n2nc(C3=CCOCC3)nc2n1CC(=O)Nc1ccc(C(F)(F)F)cc1Cl [Example 96, N-(2-chloro-4-(trifluoromethyl)phenyl)-2-(2-(3,6-dihydro-2H-pyran-4-yl)-5-ethyl-6-(4-(3-hydroxypicolinoyl)piperazin-1-yl)-7-oxo-[1,2,4]triazolo[1,5-a]pyrimidin-4(7H)-yl)acetamide]",> 10000,60,60
"CCc1c(N2CCN(C(=O)c3ncccc3O)CC2)c(=O)n2nc(C3=CCOCC3)nc2n1CC(=O)Nc1cc(C(F)(F)F)c(Cl)cc1C [Example 103, N-(4-chloro-2-methyl-5-(trifluoromethyl)phenyl)-2-(2-(3,6-dihydro-2H-pyran-4-yl)-5-ethyl-6-(4-(3-hydroxypicolinoyl)piperazin-1-yl)-7-oxo-[1,2,4]triazolo[1,5-a]pyrimidin-4(7H)-yl)acetamide]",> 10000,100,250
"CCc1c(N2CCN(C(=O)c3ncnc(C)c3O)CC2)c(=O)n2nc(C3=CCOCC3)nc2n1CC(=O)Nc1ccc(C(F)(F)F)c(F)c1C [Example 93, 2-(2-(3,6-dihydro-2H-pyran-4-yl)-5-ethyl-6-(4-(5-hydroxy-6-methylpyrimidine-4-carbonyl)piperazin-1-yl)-7-oxo-[1,2,4]triazolo[1,5-a]pyrimidin-4(7H)-yl)-N-(3-fluoro-2-methyl-4-(trifluoromethyl)phenyl)acetamide]",> 10000,80,70
